Experimental data taken from EP2353599A1, “8-hydroxyquinolines as inhibitors of cathepsin B” (University of Ljubljana, priority 2010, dated 2011).

How the values were obtained:
[1] = molecular target: Cathepsin B (Homo sapiens, UniProt P07858); assay: Cathepsin B exopeptidase activity, enzyme kinetics with substrate Abz-GIVRAK(Dnp)-OH; assay type: biochemical
Experimental: The effect of 5-nitro-8-hydroxyquinoline on cathepsin B exopeptidase activity was assessed with an exopeptidase substrate Abz-GIVRAK(Dnp)-OH. 5 µl of Abz-GIVRAK(Dnp)-OH (final concentration 1, 3 and 6 µM) and 5 µl of 5-nitro-8-hydroxyquinoline at increasing concentrations were added to wells of a black microplate. 90 µl of human recombinant cathepsin B was then added to a final concentration of 0.25 nM in activation buffer (60 mM acetate buffer, pH 5.0 with 0.1 % PEG, 5 mM DTT and 1.5 mM EDTA). All assay mixtures contained a constant amount of DMSO, i.e. 5 %.
Formation of fluorescent degradation product was continuously monitored at 320 nm ± 20 nm excitation and 420 nm ± 10 nm emission wavelengths on Tecan Safire^2™ at 37°C. Mechanism and the constant of inhibition (Ki) of cathepsin B exopeptidase activity were determined using the graphical method according to Cornish-Bowden (Cornish-Bowden A: A Simple Graphical Method for Determining the Inhibition Constants of Mixed, Uncompetitive and Non-Competitive Inhibitors. Biochem J 1974, 137:143-4.) and using the SigmaPlot® 11, Enzyme Kinetics Module™ 1.3.

[2] = molecular target: T1, cathepsin H (Homo sapiens, UniProt P09668); assay: Selectivity: Ki against cathepsin H, substrate R-AMC; assay type: biochemical
T1 sequence (P09668 98-335): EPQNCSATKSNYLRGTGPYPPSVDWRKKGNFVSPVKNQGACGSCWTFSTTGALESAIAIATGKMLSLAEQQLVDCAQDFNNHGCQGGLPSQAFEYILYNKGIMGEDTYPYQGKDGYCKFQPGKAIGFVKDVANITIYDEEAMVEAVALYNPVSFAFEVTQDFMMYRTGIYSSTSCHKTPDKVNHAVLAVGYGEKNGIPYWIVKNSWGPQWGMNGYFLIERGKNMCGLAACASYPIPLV
Experimental: (§1) Activation buffer used with cathepsin L was 100 mM acetate buffer, pH 5.5 with 0.1 % PEG, 5 mM DTT and 1.5 mM EDTA and with cathepsin H was 100 mM phosphate buffer, pH 6.8 with 0.1 % PEG, 5 mM DTT and 1.5 mM EDTA. Table II. Ki values for 5-nitro-8-hydroxyquinoline determined against cathepsins B, L and H.

[3] = system: MCF-10A neoT cell line; assay: Millicell Matrigel in vitro tumour cell invasion assay; assay type: cell-based; details: Homo sapiens, 24 h, read-out: inhibition of tumour invasion compared to DMSO control
Experimental: To assess the ability of 5-nitro-8-hydroxyquinoline to inhibit tumour cell invasion two independent experiments were used. First, an in vitro invasion model using Millicell Cell culture inserts (12 mm polycarbonate inserts with 12 µm pores) was performed. The bottom sides of 24-wells were coated with 100 µl of fibronectin from bovine plasma (25 µg/ml) and left in a laminar hood to dry. The upper side of Millicell inserts was coated with 100 µl of Matrigel (0.75 mg/ml in serum free medium) and incubated for 1 h at 37 °C. The inserts were then placed in with fibronectin coated wells. The upper compartments of the inserts were filled with 200 µl MCF-10A neoT cell suspension (7.5x10^5/ml) containing 5-nitro-8-hydroxyquinoline (10 µM) in serum free medium and the bottom compartments were filled 500 µl of medium containing 10 µM 5-nitro-8-hydroxyquinoline and 10 % fetal calf serum. After 24 h incubation the bottom sides of wells were washed with 500 µl of PBS and the cells that were attached were detached by 0.05 % trypsin and 0.02 % EDTA in PBS. […] After a 2 h incubation period the absorbance was measured at 490 nm. […] The percentage of cell invasion was calculated as the ratio between the invading cells and the total cell population.

[4] = molecular target: cathepsin L (Homo sapiens, UniProt P07711); assay: Selectivity: Ki against cathepsin L, substrate Z-FR-AMC; assay type: biochemical
Chain of cathepsin L (P07711 114-333, species assumed): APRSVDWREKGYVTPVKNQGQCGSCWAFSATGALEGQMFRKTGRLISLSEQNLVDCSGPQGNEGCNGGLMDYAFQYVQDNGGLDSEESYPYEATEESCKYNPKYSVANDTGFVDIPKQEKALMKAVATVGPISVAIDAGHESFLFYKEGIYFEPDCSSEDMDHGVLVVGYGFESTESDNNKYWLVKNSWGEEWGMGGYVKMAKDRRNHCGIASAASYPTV
Experimental: as §1

[5] = system: MCF-10A neoT cells; assay: Three-dimensional in vitro invasion model based on spheroids; assay type: cell-based; details: 10 µM, Matrigel
Experimental: The ability of 5-nitro-8-hydroxyquinoline to inhibit tumour cell invasion was also tested in a three-dimensional in vitro invasion model based on spheroids. Multicellular tumour spheroids were prepared according to hanging drop method (Kelm JM, Timmins NE, Brown CJ, Fussenegger M, Nielsen LK: Method for generation of homogeneous multicellular tumour spheroids applicable to a wide variety of cell types. Biotechnol Bioeng 2003, 83:173-80.). Drops (20 µl) of MCF-10A neoT cell suspension ([…]) were placed onto the lids of 10 cm dishes which were inverted over dishes containing 10 ml of PBS. Upon inversion of the tray the cells accumulated at the free liquid-air interface in this way forming spheroids after sufficient sedimentation time, in our case 6 days. Wells of a 24-well plate were filled with 400 µl of Matrigel (5mg/ml) containing the 5-nitro-8-hydroxyquinoline at the final concentration of 10 µM. After 15 min incubation at 37 °C 1 ml of medium with the test compound (10 µM) was placed on top of Matrigel. Spheroids were then carefully plated into the wells and incubated at 37 °C in a humidified atmosphere containing 5 % CO2. Images of spheroids were obtained using an Olympus IX 81 motorized inverted microscope and CellR software.

[6] = system: MCF-10A neoT cells; assay: MTS cytotoxicity assay; assay type: cell-based; details: 10 µM, 24 h incubation
Experimental: A MTS assay was used to assess the cytotoxic effect of 5-nitro-8-hydroxyquinoline on MCF-10A neoT cells. 5 × 10^4 cells in 100 µl of medium were added to a single well of a 96-microtiter plate to which a 100 µl of 5-nitro-8-hydroxyquinoline solution (twice the final concentration) was added. After 24 h incubation the cells were washed and the medium was replaced with 100 µl of fresh medium to which a 20 µl of MTS was added. After 2 h incubation the absorbance was measured at 490 nm. The experiment was performed in quadruplicates and DMSO was used as control.

[7] = system: MCF-10A neoT cell; assay: DQ-collagen IV degradation by fluorescence microscopy; assay type: cell-based; details: 10 µM, 24 h
Experimental: 5-nitro-8-hydroxyquinoline was also tested for the ability to inhibit intracellular and extracellular degradation of DQ-collagen IV. First, inhibitory effect was observed using fluorescence microscopy. Wells of precooled Lab-Tek™ Chambered Coverglass (Nalge Nunc International) were coated with 25 µg/ml of the quenched fluorescent substrate DQ-collagen IV suspended in 40 µl of 100 % Matrigel for 10 min at 4°C. DQ-collagen IV/Matrigel matrix was allowed to polymerize for 40 min at 37°C. 400 µl of MCF-10A neoT cell suspension (1.5x10^5/ml) in growth medium containing 2 % Matrigel and 10 µM of 5-nitro-8-hydroxyquinoline were plated onto gelled Matrigel. After 24 h incubation at 37°C with 5 % CO2 the samples were monitored for fluorescent degradation products using Olympus IX 81 motorized inverted microscope and CellR software. CA-074 and CA-074Me were used as positive controls.

With O=[N+]([O-])c1ccc(O)c2ncccc12 [Compound 1, 5-nitro-8-hydroxyquinoline] the Mechanism of inhibition ([1]; cathepsin B exopeptidase activity) was “non-competitive”, the Ki ([1]; exopeptidase activity, substrate Abz-GIVRAK(Dnp)-OH, pH 5.0, 37°C) was 220 ± 13.3 µM and the “inhibits endopeptidase activity more potently than exopeptidase activity” value ([1]; ratio of exopeptidase Ki to endopeptidase Ki) was 5.8 times. The Mechanism of inhibition [2] was “mixed”, the Ki ([2]; substrate R-AMC, pH 6.8) was 220.8 ± 2.1 µM and the inhibition at 10 µM [3] was 40.7%. For the same molecule, the Mechanism of inhibition [4] was “competitive”, the Ki ([4]; substrate Z-FR-AMC, pH 5.5) was 175 ± 17.1 µM and the “inhibition of tumour invasion in three-dimensional spheroid model” value [5] was “completely abrogated the invasive activity at the edge of the spheroid”. The “cytotoxic effect (cell viability, MTS)” value [6] was “non-toxic” and the “inhibition of DQ-collagen IV degradation (fluorescence microscopy)” value [7] was “inhibited both intracellular and extracellular DQ-collagen IV degradation”.
